Test results reported in US20090202659A1, “Modulation of Peripheral Clocks in Adipose Tissue” (priority 2005, published 2009).

Tests used:
[1] = tested on: undifferentiated human ASCs; experiment: Circadian gene expression induction in undifferentiated human ASCs (qRT-PCR); format: cell-based; settings: for Rev-erbα and Rev-erbβ expression zenith, time: three donors
From the text: Human Adipose-Derived Stem Cell (ASCs) Isolation and Expansion. All protocols were reviewed and approved by the Pennington Biomedical Research Center Institutional Research Board (IRB; Baton Rouge, La.) prior to the study. Liposuction aspirates from subcutaneous adipose tissue sites were obtained from female subjects undergoing elective procedures in local plastic surgical offices. Tissues were washed 3-4 times with phosphate-buffered saline (PBS) and suspended in an equal volume of PBS supplemented with 1% bovine serum and 0.1% collagenase type I (Worthington Biochemical Corporation, Lakewood, N.J.) prewarmed to 37° C. The tissue was then placed in a shaking water bath at 37° C. with continuous agitation for 60 min and centrifuged for 5 min at 300-500×g at room temperature. The supernatant, containing mature adipocytes, was aspirated. The pellet was identified as the stromal vascular fraction (SVF). Portions of the SVF were resuspended in cryopreservation medium (10% dimethylsulfoxide, 10% DMEM/F 12 Ham's, 80% fetal bovine serum), frozen at −80° C. in an ethanol-jacketed, closed container, and subsequently stored in liquid nitrogen. Portions of the SVF were used in colony forming unit assays (see below). The remaining cells of the SVF were suspended and plated immediately in T225 flasks in stromal medium (DMEM/F 12 Ham's, 10% fetal bovine serum (Hyclone, Logan, Utah), 100 U penicillin/100 μg streptomycin/0.25 μg Fungizone) at a density of 0.156 ml of tissue digest/sq cm of surface area for expansion and culture. This initial passage of the primary cell culture was referred to as “Passage 0” (P0). […] The cells were passaged by trypsin (0.05%) digestion and plated at a density of 5,000 cells/cm^2 (“Passage 1”). Cell viability and numbers at the time of passage were determined by trypan blue exclusion and hemacytometer cell counts. Cells were passaged repeatedly after achieving a density of 75-90% (approximately 6 days in culture) until Passage 2.
Circadian Induction: The medium was removed from confluent cultures of undifferentiated or adipocyte-differentiated human ASCs in 6 well plates and replaced with DMEM/Ham's F12 medium and 100 U penicillin/100 μg streptomycin/0.25 μg Fungizone alone or supplemented with one of the following: 30% FBS, 1 μM dexamethasone, or 5 μM rosiglitazone. The ASCs were exposed to the inductive agents for 2 hr. A single plate under each condition was harvested for total RNA after 1 hr of induction. After 2 hr, the medium in the remaining plates was replaced with serum free DMEM/Ham's F12 medium and 100 U penicillin/100 μg streptomycin/0.25 μg Fungizone alone.
Quantitative Real-time RT-PCR (qRT-PCR) for Human ASCs: Total RNA was purified from the ASCs as described above for mouse tissues using TriReagent (Molecular Research Center) according to the manufacturer's specifications. Approximately 2 μg of total RNA was reverse transcribed using Moloney Murine Leukemia Virus Reverse Transcriptase (MMLV-RT; Promega), with Oligo dT at 42° C. for 1 hr in a 20 μL reaction. Primers for genes of interest (listed in Table 2) were identified using Primer Express software (Applied Biosystems). All primers were based on the sequence of the corresponding human mRNA and were designed to amplify across at least one exon/intron junction. qRT-PCR was performed on diluted cDNA samples with SYBR® Green PCR Master Mix (Applied Biosystems) using the 7900 Real Time PCR system (Applied Biosystems) under universal cycling conditions (95° C. for 10 min; 40 cycles of 95° C. for 15 sec; then 60° C. for 1 min). All results were normalized relative to a Cyclophilin B expression control.
Periodicity Analysis: Periodicity of the circadian data obtained by qRT-PCR was tested with Time Series Analysis-Single Cosinor v. 6.0 software (Expert Soft Technologie). […] Model was also tested for validity at the 0.950 probability level (ANOVA).

[2] = tested on: adipocyte-differentiated human ASCs; experiment: Circadian gene expression induction in adipocyte-differentiated human ASCs (qRT-PCR); format: cell-based
From the text: Human Adipose-Derived Stem Cell (ASCs) Isolation and Expansion. All protocols were reviewed and approved by the Pennington Biomedical Research Center Institutional Research Board (IRB; Baton Rouge, La.) prior to the study. Liposuction aspirates from subcutaneous adipose tissue sites were obtained from female subjects undergoing elective procedures in local plastic surgical offices. Tissues were washed 3-4 times with phosphate-buffered saline (PBS) and suspended in an equal volume of PBS supplemented with 1% bovine serum and 0.1% collagenase type I (Worthington Biochemical Corporation, Lakewood, N.J.) prewarmed to 37° C. The tissue was then placed in a shaking water bath at 37° C. with continuous agitation for 60 min and centrifuged for 5 min at 300-500×g at room temperature. The supernatant, containing mature adipocytes, was aspirated. The pellet was identified as the stromal vascular fraction (SVF). Portions of the SVF were resuspended in cryopreservation medium (10% dimethylsulfoxide, 10% DMEM/F 12 Ham's, 80% fetal bovine serum), frozen at −80° C. in an ethanol-jacketed, closed container, and subsequently stored in liquid nitrogen. Portions of the SVF were used in colony forming unit assays (see below). The remaining cells of the SVF were suspended and plated immediately in T225 flasks in stromal medium (DMEM/F 12 Ham's, 10% fetal bovine serum (Hyclone, Logan, Utah), 100 U penicillin/100 μg streptomycin/0.25 μg Fungizone) at a density of 0.156 ml of tissue digest/sq cm of surface area for expansion and culture. This initial passage of the primary cell culture was referred to as “Passage 0” (P0). Following the first 48 hr of incubation at 37° C. at 5% CO2, the cultures were washed with PBS and maintained in Stromal Media until they achieved 75-90% confluence (approximately 6 days in culture). The cells were passaged by trypsin (0.05%) digestion and plated at a density of 5,000 cells/cm^2 (“Passage 1”). Cell viability and numbers at the time of passage were determined by trypan blue exclusion and hemacytometer cell counts. Cells were passaged repeatedly after achieving a density of 75-90% (approximately 6 days in culture) until Passage 2. […]
Quantitative Real-time RT-PCR (qRT-PCR) for Human ASCs: Total RNA was purified from the ASCs as described above for mouse tissues using TriReagent (Molecular Research Center) according to the manufacturer's specifications. […]

bipolar patients = settings: A. Fagiolini et al., 2002, 2003; cited from earlier work
[3] = tested on: adipocyte-differentiated human adipose stem cells; experiment: Effect of GSK3B inhibitor on dexamethasone-induced circadian gene expression profiles of human ASCs (qRT-PCR); format: cell-based; settings: 30 μM in serum-free media after 2 hr 1 μM dexamethasone, FIG. 12
Procedure: Treatment of human adipose derived stem cells with dexamethasone was shown above to induce a circadian rhythm in vitro, and studies were conducted to see if this induction would be blocked by the addition of a glycogen synthase kinase 3 beta inhibitor. Confluent cultures of human ASCs were induced by exposure to 1 micromolar dexamethasone for a period of 2 hr. The medium was changed to either serum-free media (SF), or serum-free media with 30 μM SB415286 (SB415, an inhibitor of glycogen synthase kinase 3 beta). Individual cultures were harvested for total RNA at the indicated times and used for qRT-PCR analysis of gene expression of Bmal1, Per3, and Rev-erbα, and normalized relative to the corresponding Cyclophilin B levels.

[4] = 1 μM for 2 hr, then serum free medium, four donors, FIG. 8B
[5] = undifferentiated ASCs, 2 hr exposure
[6] = adipocyte-differentiated vs undifferentiated ASCs

C[C@@H]1C[C@H]2[C@@H]3CCC4=CC(=O)C=C[C@]4(C)[C@@]3(F)[C@@H](O)C[C@]2(C)[C@@]1(O)C(=O)CO [dexamethasone]
Bmal1 peak levels, first peak, time following induction [1, 4]: 16 to 20 h | Bmal1 peak levels, second peak, time following induction [1, 4]: 40 h | Per1, Per3, and Cry2 expression peaks, time after induction [1, 4]: 28 to 32 h | immediate-early induction of Per1, Per3, and Cry2 mRNAs, time after induction [1, 4]: 1 to 4 h | phase shift of Bmal1 relative to Per1, Per3, and Cry2 ([1]; 1 μM for 2 hr, four donors): 8 to 12 h | Rev-erbα peak levels, time post induction ([1]; 1 μM for 2 hr, four donors, FIG. 8B): 24 h | Rev-erbα and Rev-erbβ expression zenith, time [1, 5]: 24 h | Per 3 subsequent peak, time ([2]; adipocyte-differentiated ASCs, 2 hr exposure, three donors): 20 to 24 h | Rev-erbα and Rev-erbβ phase-advance relative to the undifferentiated ASCs [2, 6]: ~8 h

[Cl-].[Li+] [lithium chloride]
weight change under pharmacotherapy (bipolar patients): gain weight rapidly and become obese

O=C1NC(=O)C(c2ccccc2[N+](=O)[O-])=C1Nc1ccc(O)c(Cl)c1 [SB415286]
effect on circadian cycle of gene expression [3]: shifted and lengthened | mRNA induction profile delayed and shifted (Bmal1, Per3, Rev-erb alpha) ([3]; vs serum-free media alone): 6 to 9 h

CN(CCOc1ccc(CC2SC(=O)NC2=O)cc1)c1ccccn1 (stereo not shown) [thiazolidinedione, rosiglitazone]
Per 3 immediate early response [1, 5]: Neither 30% serum nor thiazolidinedione initiated an immediate early response | Rev-erbα and Rev-erbβ expression zenith, time [1, 5]: 24 h | Per 3 peak expression earlier in adipocyte-differentiated than in undifferentiated ASCs [2, 6]: approximately 4 hr | Rev-erbα and Rev-erbβ phase-advance relative to the undifferentiated ASCs [2, 6]: ~8 h
